{
  "source": "patent US20230357373A1",
  "about": "“METHODS AND COMPOSITIONS FOR […] TREATING FIBROSIS” (Mie University, priority 2019, published 2023)",
  "key": {"[1]": {"tested_on": "A549 alveolar epithelial cells", "assay": "Apoptosis assay by flow cytometry (annexin V / propidium iodide) in A549 cells", "type": "cell-based, human", "conditions": "for apoptosis of alveolar epithelial cells: 10 μM peptide, 24 h", "description": "(§1) The A549 and NHBE cells were cultured in DMEM supplemented with 10% fetal calf serum, 0.03% (w/v) L-glutamine, 100 IU/ml penicillin and 100 μg/ml streptomycin in a humidified, 5% CO2 atmosphere at 37° C. We used A549 cell lines in most experiments because they have higher potential growth and mimic the phenotype of alveolar type II cells more than primary NHBE cells (NPL82, NPL83); and in addition, these primary cells usually easily change phenotype or become senescent after a short period of culture.\n(§2) A549 and NBHE cells (4×10^5 cells/well) were seeded into 12-well plates, cultured to sub-confluency, washed and then cultured in serum free medium containing 10% of each bacterial supernatant for 48 h. Non-inoculated hypersaline medium was used as control. The cells were analyzed for apoptosis by flow cytometry (FACScan, BD Biosciences, Oxford, UK) after staining with fluorescein-labelled annexin V and propidium iodide (FITC Annexin V Apoptosis Detection Kit with PI, Biolegend, San Diego, CA). Flow cytometry gating strategy used in the experiments is described in FIGS. 34A-34C. Under physiological conditions, phosphatidylcholine is exposed externally while phosphatidylserine (PS) is located on the inner surface of the lipid bilayer of cellular membranes. See NPL84. During apoptosis, PS is translocated from the cytoplasmic face of the plasma membrane to the cell surface. Id."}, "[2]": {"tested_on": "normal human bronchial epithelial (NHBE) cells", "assay": "Apoptosis assay by flow cytometry in normal human bronchial epithelial cells", "type": "cell-based", "conditions": "10 μM, 48 h", "description": "More specifically, FIGS. 19A-19B show a flow cytometry analysis of normal human bronchial epithelial (NHBE) cells after culturing for 48 h in DMEM medium containing 10 μM of corisin or of its scrambled sequence. Each treatment group had n=4. Bars indicate the means ±S.D. Statistical analysis by ANOVA with Tukey's test. *p<0.001.\nas §1\nA549 and NBHE cells (4×10^5 cells/well) were seeded into 12-well plates, cultured to sub-confluency, washed and then cultured in serum free medium containing 10% of each bacterial supernatant for 48 h. Non-inoculated hypersaline medium was used as control. The cells were analyzed for apoptosis by flow cytometry (FACScan, BD Biosciences, Oxford, UK) after staining with fluorescein-labelled annexin V and propidium iodide (FITC Annexin V Apoptosis Detection Kit with PI, Biolegend, San Diego, CA). […]"}, "[3]": {"tested_on": "normal human bronchial epithelial (NHBE) cells", "assay": "Western blotting of cleaved caspase-3 and Akt in NHBE cell lysates", "type": "cell-based", "description": "Each treatment group had n=4. A representative blot of each treatment group is shown.\nFIGS. 19D and 19E show the intensity of the Western blot membrane bands as quantified by densitometry using Image? software. Each treatment group had n=4. Bars indicate the means ±S.D. Statistical analysis was performed by one-tailed Mann-Whitney U test. *p<0.05.\nThe cells for Western blot analysis were washed twice with ice-cold phosphate-buffered saline and then lysed in radioimmunoprecipitation assay (RIPA) buffer (10 mM Tris-Cl (pH 8.0), 1 mM EDTA, 1% Triton X-100, 0.1% sodium deoxycholate, 0.1% SDS, 140 mM NaCl, 1 mM phenylmethylsulfonyl fluoride) supplemented with protease/phosphatase inhibitors (1 mM orthovandate, 50 mM β-glycerophosphate, 10 mM sodium pyrophosphate, 5 μg/mL leupeptin, 2 μg/mL aprotinin, 5 mM sodium fluoride). The suspensions were centrifuged (17,000 x g, 10 min at 4° C.), and the protein content was determined using Pierce BCA protein assay kit (Thermo Fisher Scientific Incorporation, Waltham, MA). Equal amounts of cellular lysate protein were mixed with Laemmli sample buffer and separated by SDS-PAGE. […] The intensity of the bands was quantified by densitometry using the public domain NIH imageJ program (Wayne Rasband, NIH, Research Service Branch)."}, "[4]": {"tested_on": "HFL1 lung fibroblasts", "assay": "Apoptosis flow cytometry in lung fibroblasts", "type": "cell-based", "conditions": "10 μg/ml, 48 h", "description": "FIGS. 21A and 21B show a flow cytometry analysis of HFL1 lung fibroblasts after culturing for 48 h in DMEM medium containing 10 μg/ml corisin. Each had with n=4.\nas §2"}, "[5]": {"tested_on": "human umbilical vein endothelial cells", "assay": "Apoptosis flow cytometry in vascular endothelial cells", "type": "cell-based", "conditions": "10 μg/ml, 48 h", "description": "FIGS. 21C and 21D show a flow cytometry analysis of human umbilical vein endothelial cells after culturing for 48 h in DMEM medium containing 10 μg/ml corisin. Each group had n=4.\nas §2"}, "[6]": {"tested_on": "human Jurkat T cells", "assay": "Apoptosis flow cytometry in T cells", "type": "cell-based", "conditions": "10 μg/ml, 48 h", "description": "FIGS. 21E and 21F show a flow cytometry analysis of human Jurkat T cells after culturing for 48 h in DMEM medium containing 10 μg/ml corisin. Each treatment group had n=4. Bars indicate the means ±S.D. Statistical analysis was performed by ANOVA with Tukey's test.\nas §2"}, "[7]": {"tested_on": "A549 alveolar epithelial cells", "assay": "Transmission electron microscopy of apoptotic cells", "type": "cell-based, human", "conditions": "5 μM, 16 h", "description": "A549 cells (10×10^4 cells/ml) were plated on a collagen-coated 8-well chamber slides (BD Bioscience, San Jose, CA) and cultured until semi-confluent. Cells were serum-starved for 6 h and stimulated with the pro-apoptotic peptide (5 μM) for 16 h. Cells were fixed with 2% fresh formaldehyde and 2.5% glutaraldehyde in 0.1 M sodium cacodylate buffer (pH 7.4) for 2 h at room temperature. After washing with 0.1 M cacodylate buffer (pH 7.4), they were postfixed with 1% OsO4 in the same buffer for 2 h at 4° C. The samples were rinsed with distilled water, stained with 1% aqueous uranyl acetate for 2 h or overnight at room temperature, dehydrated with ethanol and propylene oxide, and embedded in epon (Epon 812 resin, Nakalai). After removal of the cells from the glass, ultra-thin sections (94 nm) were cut, stained with uranyl acetate and Reynolds's lead citrate, and viewed with a transmission electron microscope (JEM-1010, JEOL, Tokyo, Japan)."}, "[8]": {"tested_on": "TGFβ1 TG mice", "assay": "Intratracheal instillation of corisin in TGFβ1 TG mice with lung fibrosis", "type": "in vivo, mouse", "conditions": "intratracheal once daily for two days, euthanasia day 3, vs control mice", "from_the_text": "To investigate whether corisin can exacerbate the lung fibrotic disease in vivo, we separated TGFβ1 TG mice into three groups with matched level of lung fibrosis (see FIGS. 25A and 25B) and treated them with saline, scrambled peptide or corisin by the intratracheal route once daily for two days before euthanasia on day 3 (see FIG. 6A).\nUnder profound anesthesia, we collected bronchoalveolar lavage fluid for biochemical analysis and cell counting. Briefly, bronchoalveolar lavage fluid was performed by cannulating the trachea with a 20-gauge needle and infusing saline solutions into the lungs in accordance with NPL68. The samples were centrifuged and the supernatants were stored at −80° C. until analysis. The cell pellets were re-suspended in physiological saline solution and the number of cells was counted. A nucleocounter from ChemoMetec (Allerød, Denmark) was used for cell counting and the cells were stained with May-Grünwald-Giemsa (Merck, Darmstadt, Germany) to count differential cells. Mice were sacrificed by anesthesia overdose, and the lungs were resected to fix in formalin, embedded in paraffin and prepared for hematoxylin and eosin staining. The severity of lung fibrosis was quantitated based on the Ashcroft criteria. See NPL67. The level of TGFβ1 was measured using a commercial enzyme immunoassay kit from BD Biosciences Pharmingen (San Diego, CA).\nThree groups of TGFβ1 TG mice (each n=5 or n=4) with matched grade (level) of lung fibrosis as assessed by CT score underwent intratracheal instillation of corisin or scrambled peptide or 0.9% NaCl solution on days 1 and 2 and sacrificed on day 3 to evaluate changes in lung inflammation and fibrosis. WT mice (n=3) without lung fibrosis treated with 0.9% NaCl solution were used as controls.\nStaining of terminal deoxynucleotidyl transferase dUTP Nick-End Labeling (TUNEL) was performed at the Biopathology Institute Corporation (Kunisaki, Oita, Japan) by using Alexa Fluor 594 goat anti-rabbit IgG and slow-fade gold-antifade reagent with 4′,6-diamidino-2-phenylindole (DAPI) or by using ApopTag terminal deoxynucleotidyl transferase (Merck Millipore, Burlington, MA), anti-digoxigenin-peroxidase and 3,3′-diaminobenzidine. Quantification of apoptotic areas was performed using the WinROOF software (Mitani Corporation, Tokyo, Japan) and the values were averaged for each individual mouse."}},
  "data": [
    {"sequence": "IIARESNGQLHARNASGAA (listed as Staphylococcus epidermidis) [reference compound]", "values": [
      {"measurement": "apoptosis of alveolar epithelial cells", "setting": "[1]", "result": "no pro-apoptotic effect"}
    ]},
    {"sequence": "IVMPESGGNPNAVNPAGYR (listed as Staphylococcus warneri) [1 amino acid change from Staphylococcus nepalensis derivative]", "values": [
      {"measurement": "apoptosis of A549 alveolar epithelial cells", "setting": "[1]; 5 μM peptide, 48 h", "result": "induces apoptosis"}
    ]},
    {"sequence": "IVMPESSGNPNAVNPAGYR (listed as Staphylococcus cohnii) [corisin, peptide of 19 amino acid residues, segment of transglycosylase 351 IsaA of Staphylococcus nepalensis strain CNDG]", "values": [
      {"measurement": "pro-apoptotic activity after heating", "setting": "[1]; 5 μM, incubated at 85° C. for 15 min before adding to A549 cells for 48 h", "result": "heat-resistant"},
      {"measurement": "apoptosis of alveolar epithelial cells", "setting": "[1]", "result": "induces apoptosis of alveolar epithelial cells"},
      {"measurement": "apoptotic activity compared with equal protein concentrations of supernatant", "setting": "[1]; corisin 5 or 10 μg/ml vs supernatant protein 10 or 100 μg/ml, 48 h", "result": "significantly more potent"},
      {"measurement": "pro-apoptotic effect on A549 cells", "setting": "[1]; increasing concentrations of synthetic corisin, 48 h, DMEM", "result": "recapitulated the pro-apoptotic effect of the staphylococcal isolate supernatant in a dose dependent manner"},
      {"measurement": "apoptosis of normal human bronchial epithelial cells", "setting": "[2]", "result": "significantly enhanced apoptosis"},
      {"measurement": "Akt activation", "setting": "[3]", "result": "decreased"},
      {"measurement": "cleavage of caspase-3", "setting": "[3]", "result": "increased"},
      {"measurement": "apoptotic activity on lung fibroblast", "setting": "[4]", "result": "no apoptotic activity"},
      {"measurement": "apoptotic activity on vascular endothelial cell", "setting": "[5]", "result": "no apoptotic activity"},
      {"measurement": "apoptotic activity on lymphocyte cell line", "setting": "[6]", "result": "no apoptotic activity"},
      {"measurement": "apoptotic property by transmission electron micrographs", "setting": "[7]", "result": "confirmed the apoptotic property"},
      {"measurement": "apoptosis of epithelial cells in the lungs", "setting": "[8]", "result": "enhanced"},
      {"measurement": "collagen deposition in the lungs", "setting": "[8]", "result": "increased"},
      {"measurement": "concentration of inflammatory cytokines and chemokines in the lungs", "setting": "[8]", "result": "increased"},
      {"measurement": "infiltration of macrophages, lymphocytes and neutrophils in the lungs", "setting": "[8]", "result": "significantly increased"}
    ]},
    {"sequence": "NRVYNGPAASPVSEGMPIN (listed as Staphylococcus epidermidis) [scrambled peptide, reference compound]", "values": [
      {"measurement": "apoptosis of alveolar epithelial cells", "setting": "[1]", "result": "not"},
      {"measurement": "apoptosis of normal human bronchial epithelial cells", "setting": "[2]", "result": "did not"}
    ]}
  ]
}
